From patent publication US20030121068A1, “Vector encoding suicide and marker constructs” (priority 2001, published 2003)

Assays:
NIH 3T3 and CEM cells = assay: MTS cytotoxicity assay of transduced cells in 5-FC; type: cell-based, murine fibroblasts (NIH 3T3); human T cells (CEM); details: untransduced NIH 3T3 and CEM cells
Experimental: CD function was tested by cytotoxicity assays in which transduced cells are exposed to various concentrations of 5-FC in 96 well plates. Assays were initiated using 500 cells/well of NIH cells or 10,000 cells/well of CEM cells placed in culture with semi-log increasing concentrations of 5-FC for a period of 5 days. An MTS (Promega, Cell Titre 96; cat no. G5430, GI 11) colorimetric assay (based on the conversion of a tetrazolium dye to formazan) was utilized to quantitate the concentration of viable cells on day 5. The absorbance of UV light at a wavelength of 565 nm at a given concentration of 5-FC was used to calculate the LD50 using a μQuant plate reader (Bio Tek Instruments Inc.). The fusion constructs were tested alongside controls containing only the NGFR and the CD constructs.
We tested to determine if the CD construct remained functional in the fusion protein. Cells were incubated with varying concentrations of 5-FC in 96-well plates. After 5 days, MTS reagent was added as per manufacturers recommendations. The reaction involves a color change based on the number of viable cells as the tetrazolium dye changes to formazan. Absorption of UV light at 565 nm can then be used to assess viability (shown in FIG. 3 as percentage of viable cells). Untransduced cells are resistant to the effects of 5-FC. […]

[1] = Adverse effects of 5-FC injections in mice; type: in vivo, NOD/Scid mice; details: 400 mg/kg, day 5 through 19, control mice injected with saline
Experimental: In order to determine whether genetically engineered CEM cells could be effectively eradicated in vivo, NOD/Scid mice were utilized. After being exposed to 150 rads of radiation on day 1, four groups of mice were injected with saline (control) or 5×10^6 engineered cells on day 2. The remaining three groups included non-CD containing group (LNGFRSN), E. coli fusion construct containing group (LNGCDeSN) and the Saccharomyces fusion construct-containing group (LNGCDsSN). The genetically engineered cells were suspended in PBS at a 5×10^6 cells/0.5 ml and injected via the tail vein. Commencing day 5 though day 19, the mice were injected with 5-FC (Sigma, cat no. F-7129, lot no. 110K4012) at 400 mg/kg using a stock solution of 12.5 mg/ml, prepared in normal saline. After two weeks of 5-FC treatment, the mice were followed to assess mortality within each group. A Kaplan Meyer analysis was performed to determine the effect of 5-FC treatment for each group. The experiment was continued for 100 days after initiation.
As expected, control mice injected with saline survived the duration of the experiment. […] This group serves as a second control against mice injected with CD containing fusion constructs. […]

Nc1nc(=O)[nH]cc1F [5-FC, 5-fluorocytosine]
effect of 5-FC on untransduced cells (NIH 3T3 and CEM cells): resistant
adverse effects of 5-FC injections [1]: No adverse effects
